Laboratory results: ChEMBL document CHEMBL3875196, “Novel pyrazolo[1,5-a]pyridines with improved aqueous solubility as p110α-selective PI3 kinase inhibitors” (Bioorg Med Chem Lett, 2017)

Experiments:
[1] = Solubility of the compound in water by HPLC analysis; type: physicochemical
[2] = target: Phosphatidylinositol 4,5-bisphosphate 3-kinase catalytic subunit alpha isoform (Homo sapiens, UniProt P42336, H1047R); assay: Inhibition of p110alpha H1047R mutant in human HCT116 cells assessed as suppression of PKB phosphorylation at Ser473 preincubated for 15 mins followed by insulin stimulation for 5 mins by immunoblot analysis; type: cell-based, HCT-116
Phosphatidylinositol 4,5-bisphosphate 3-kinase catalytic subunit alpha isoform, sequence (P42336 whole entry H1047R, canonical isoform): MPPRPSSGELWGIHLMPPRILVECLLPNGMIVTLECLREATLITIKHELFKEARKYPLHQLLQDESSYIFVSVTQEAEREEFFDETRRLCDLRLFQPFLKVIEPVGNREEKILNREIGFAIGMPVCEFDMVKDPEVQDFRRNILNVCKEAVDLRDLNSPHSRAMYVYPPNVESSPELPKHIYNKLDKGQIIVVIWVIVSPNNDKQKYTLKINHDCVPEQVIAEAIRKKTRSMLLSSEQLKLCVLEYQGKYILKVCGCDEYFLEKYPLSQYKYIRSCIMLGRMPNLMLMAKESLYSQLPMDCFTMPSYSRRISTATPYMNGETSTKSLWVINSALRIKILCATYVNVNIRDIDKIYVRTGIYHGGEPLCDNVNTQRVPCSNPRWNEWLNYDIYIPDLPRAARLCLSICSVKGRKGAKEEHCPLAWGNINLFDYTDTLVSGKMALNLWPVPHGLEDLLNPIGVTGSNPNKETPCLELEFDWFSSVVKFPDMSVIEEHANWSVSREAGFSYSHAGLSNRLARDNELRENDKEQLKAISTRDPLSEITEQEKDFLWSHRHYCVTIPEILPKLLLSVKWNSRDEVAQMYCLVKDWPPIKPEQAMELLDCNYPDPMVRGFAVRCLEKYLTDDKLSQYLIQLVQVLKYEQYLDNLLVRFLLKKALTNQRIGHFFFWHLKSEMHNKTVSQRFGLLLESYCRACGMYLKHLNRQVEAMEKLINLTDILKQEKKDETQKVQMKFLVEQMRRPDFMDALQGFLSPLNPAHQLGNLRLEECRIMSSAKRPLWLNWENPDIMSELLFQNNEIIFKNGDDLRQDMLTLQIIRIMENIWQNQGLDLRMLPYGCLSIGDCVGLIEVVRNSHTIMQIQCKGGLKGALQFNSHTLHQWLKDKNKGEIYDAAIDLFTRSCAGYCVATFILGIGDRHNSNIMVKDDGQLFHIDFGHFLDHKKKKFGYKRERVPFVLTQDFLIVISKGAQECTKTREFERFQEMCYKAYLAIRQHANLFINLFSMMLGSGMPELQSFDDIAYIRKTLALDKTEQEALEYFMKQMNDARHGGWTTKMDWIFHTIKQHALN

[3] = Antiproliferative activity against wild type p110alpha expressing human NZOV9 cells after 5 days by [3H]-thymidine incorporation assay; type: functional, cell-based
[4] = target: PI3K p110 beta/p85 alpha (Homo sapiens, UniProt P42338); assay: Inhibition of recombinant human p110beta/N-terminal His-tagged human p85alpha expressed in baculovirus infected sf cells using L-alpha-phosphatidylinositol as substrate after 1 hr in presence of [gamma33]-ATP by thin layer chromatographic analysis
PI3K p110 beta/p85 alpha, sequence (P27986 whole entry): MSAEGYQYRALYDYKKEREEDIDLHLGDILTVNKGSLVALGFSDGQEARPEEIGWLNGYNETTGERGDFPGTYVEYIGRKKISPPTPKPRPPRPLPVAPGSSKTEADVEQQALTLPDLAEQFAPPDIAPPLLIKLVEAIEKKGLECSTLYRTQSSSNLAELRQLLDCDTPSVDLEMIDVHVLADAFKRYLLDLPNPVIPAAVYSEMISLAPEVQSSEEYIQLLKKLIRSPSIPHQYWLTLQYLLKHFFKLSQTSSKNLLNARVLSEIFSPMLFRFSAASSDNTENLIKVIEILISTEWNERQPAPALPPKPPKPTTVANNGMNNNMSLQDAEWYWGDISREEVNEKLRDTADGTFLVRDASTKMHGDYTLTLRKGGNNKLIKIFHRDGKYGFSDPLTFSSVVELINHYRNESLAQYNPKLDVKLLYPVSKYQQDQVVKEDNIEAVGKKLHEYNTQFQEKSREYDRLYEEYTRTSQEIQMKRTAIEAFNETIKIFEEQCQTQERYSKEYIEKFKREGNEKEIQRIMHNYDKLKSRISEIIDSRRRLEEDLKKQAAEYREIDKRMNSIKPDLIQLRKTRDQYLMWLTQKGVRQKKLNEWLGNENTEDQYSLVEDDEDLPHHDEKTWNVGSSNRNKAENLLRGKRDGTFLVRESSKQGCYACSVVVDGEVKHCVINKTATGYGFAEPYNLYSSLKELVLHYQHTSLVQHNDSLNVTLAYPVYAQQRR
PI3K p110 beta/p85 alpha, sequence (P42338 whole entry): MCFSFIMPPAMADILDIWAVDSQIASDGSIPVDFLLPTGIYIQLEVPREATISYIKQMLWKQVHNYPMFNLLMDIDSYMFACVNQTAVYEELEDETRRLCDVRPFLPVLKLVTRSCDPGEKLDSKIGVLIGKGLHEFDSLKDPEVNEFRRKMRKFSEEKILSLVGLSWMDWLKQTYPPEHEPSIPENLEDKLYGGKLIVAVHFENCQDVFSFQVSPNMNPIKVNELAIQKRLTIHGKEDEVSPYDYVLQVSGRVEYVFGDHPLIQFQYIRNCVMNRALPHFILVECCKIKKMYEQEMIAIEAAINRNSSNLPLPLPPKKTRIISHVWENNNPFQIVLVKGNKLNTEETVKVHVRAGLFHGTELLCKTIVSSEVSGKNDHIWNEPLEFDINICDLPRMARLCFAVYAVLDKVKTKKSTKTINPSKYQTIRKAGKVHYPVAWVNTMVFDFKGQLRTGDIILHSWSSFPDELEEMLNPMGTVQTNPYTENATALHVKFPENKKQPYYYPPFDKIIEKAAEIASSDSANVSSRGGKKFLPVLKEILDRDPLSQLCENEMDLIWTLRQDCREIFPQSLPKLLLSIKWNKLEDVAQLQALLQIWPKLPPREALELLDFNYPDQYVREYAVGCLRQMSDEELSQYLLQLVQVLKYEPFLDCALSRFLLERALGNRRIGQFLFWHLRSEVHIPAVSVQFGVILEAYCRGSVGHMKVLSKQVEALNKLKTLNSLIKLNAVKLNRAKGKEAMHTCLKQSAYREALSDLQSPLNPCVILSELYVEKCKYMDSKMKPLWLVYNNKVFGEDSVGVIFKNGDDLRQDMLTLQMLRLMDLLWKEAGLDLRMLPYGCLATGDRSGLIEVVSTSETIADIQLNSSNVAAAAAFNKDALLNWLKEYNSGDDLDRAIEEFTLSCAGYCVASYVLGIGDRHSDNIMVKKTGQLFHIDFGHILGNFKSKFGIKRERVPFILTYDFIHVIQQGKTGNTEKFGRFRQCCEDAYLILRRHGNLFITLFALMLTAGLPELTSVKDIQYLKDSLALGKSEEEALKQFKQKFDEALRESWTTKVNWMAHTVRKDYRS

[5] = Antiproliferative activity against wild type p110alpha expressing human NZB5 cells after 5 days by [3H]-thymidine incorporation assay; type: functional, cell-based
[6] = target: T1, Phosphatidylinositol 4,5-bisphosphate 3-kinase catalytic subunit delta isoform (Homo sapiens, UniProt O00329); assay: Inhibition of p110delta (unknown origin) using L-alpha phosphatidylinositol as substrate after 1 hr in presence of [gamma33]-ATP by thin layer chromatographic analysis
T1 sequence (O00329 whole entry): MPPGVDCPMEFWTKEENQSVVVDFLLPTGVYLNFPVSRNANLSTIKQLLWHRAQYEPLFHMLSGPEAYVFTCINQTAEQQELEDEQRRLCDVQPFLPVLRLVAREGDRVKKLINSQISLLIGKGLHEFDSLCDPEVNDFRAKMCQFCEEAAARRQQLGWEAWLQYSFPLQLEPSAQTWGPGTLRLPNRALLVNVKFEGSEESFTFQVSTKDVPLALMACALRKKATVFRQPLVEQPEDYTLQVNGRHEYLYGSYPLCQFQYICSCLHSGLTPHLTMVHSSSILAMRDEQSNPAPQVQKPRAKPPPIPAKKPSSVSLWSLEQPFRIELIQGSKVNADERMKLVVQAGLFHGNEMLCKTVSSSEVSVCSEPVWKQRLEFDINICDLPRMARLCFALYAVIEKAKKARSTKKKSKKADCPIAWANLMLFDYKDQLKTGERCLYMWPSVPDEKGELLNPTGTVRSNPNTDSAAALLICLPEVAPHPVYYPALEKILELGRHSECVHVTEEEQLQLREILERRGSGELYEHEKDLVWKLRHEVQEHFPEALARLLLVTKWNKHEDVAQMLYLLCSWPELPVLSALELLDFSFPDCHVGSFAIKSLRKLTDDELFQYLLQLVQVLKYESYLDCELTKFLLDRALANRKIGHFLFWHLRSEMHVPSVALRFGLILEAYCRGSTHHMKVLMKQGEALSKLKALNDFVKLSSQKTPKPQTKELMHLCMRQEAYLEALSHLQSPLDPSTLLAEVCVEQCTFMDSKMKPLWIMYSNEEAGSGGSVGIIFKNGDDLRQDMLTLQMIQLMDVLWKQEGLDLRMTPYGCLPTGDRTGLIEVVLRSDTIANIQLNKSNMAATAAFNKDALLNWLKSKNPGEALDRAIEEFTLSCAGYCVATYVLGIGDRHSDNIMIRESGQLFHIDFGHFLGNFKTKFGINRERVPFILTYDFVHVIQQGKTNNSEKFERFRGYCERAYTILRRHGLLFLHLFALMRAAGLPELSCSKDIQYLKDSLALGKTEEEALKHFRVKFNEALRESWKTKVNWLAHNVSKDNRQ

[7] = Inhibition of recombinant mouse p110alpha/N-terminal His-tagged human p85alpha expressed in baculovirus infected Sf21 cells using L-alpha-phosphatidylinositol as substrate after 1 hr in presence of [gamma33]-ATP by thin layer chromatographic analysis
[8] = system: Mus musculus; assay: Toxicity in NIH3 mouse assessed as change in body weight at 20 to 40 mg/kg, ip; type: organism-based; conditions: in vivo
[9] = Selectivity ratio of IC50 for human p110beta to IC50 for recombinant mouse p110alpha/N-terminal His-tagged human p85alpha
[10] = Selectivity ratio of IC50 for p110delta (unknown origin) to IC50 for recombinant mouse p110alpha/N-terminal His-tagged human p85alpha

Structure (SMILES): CN(C)CCCN(C)c1ccc([N+](=O)[O-])cc1S(=O)(=O)N(C)/N=C/c1cnn2ccc(C#N)cc12.Cl
- solubility [1]: 1200 µg/mL

Structure (SMILES): CN(CCc1ccccn1)c1ccc([N+](=O)[O-])cc1S(=O)(=O)N(C)/N=C/c1cnn2ccc(C#N)cc12.Cl
- solubility [1]: 5.7 µg/mL

Structure (SMILES): CN(CCn1ccnc1)c1ccc([N+](=O)[O-])cc1S(=O)(=O)N(C)/N=C/c1cnn2ccc(C#N)cc12
- IC50 [2]: 111 nM
- IC50 [3]: 45 nM
- IC50 [4]: 150 nM
- IC50 [5]: 5 nM
- IC50 [6]: 100 nM
- IC50 [7]: 31 nM

Structure (SMILES): CN(CCc1c[nH]cn1)c1ccc([N+](=O)[O-])cc1S(=O)(=O)N(C)/N=C/c1cnn2ccc(C#N)cc12
- IC50 [2]: 67 nM
- IC50 [3]: 57 nM
- IC50 [4]: 740 nM
- IC50 [5]: 3 nM
- Activity [8]: Toxic
- IC50 [6]: 88 nM
- IC50 [7]: 18 nM

Structure (SMILES): CN(C)CCCN(C)c1ccc([N+](=O)[O-])cc1S(=O)(=O)N(C)/N=C/c1cnn2ccc(C#N)cc12
- IC50 [2]: 72 nM
- IC50 [3]: 25 nM
- IC50 [4]: 76 nM
- IC50 [5]: 4 nM
- Activity [8]: Toxic
- IC50 [6]: 100 nM
- IC50 [7]: 16 nM

Structure (SMILES): CN(CCc1c[nH]cn1)c1ccc([N+](=O)[O-])cc1S(=O)(=O)N(C)/N=C/c1cnn2ccc(C#N)cc12.Cl
- solubility [1]: 900 µg/mL

Structure (SMILES): CN(CCc1cccnc1)c1ccc([N+](=O)[O-])cc1S(=O)(=O)N(C)/N=C/c1cnn2ccc(C#N)cc12.Cl
- solubility [1]: 24 µg/mL

Structure (SMILES): CN(CCn1ccnc1)c1ccc([N+](=O)[O-])cc1S(=O)(=O)N(C)/N=C/c1cnn2ccc(C#N)cc12.Cl
- solubility [1]: 1000 µg/mL

Structure (SMILES): C/C(=N\NS(=O)(=O)c1cc([N+](=O)[O-])ccc1N(C)Cc1ccccn1)c1cnn2ccc(Br)cc12
- Ratio IC50 [9]: 800
- Ratio IC50 [10]: 2000
- IC50 [3]: 2800 nM
- IC50 [4]: 5600 nM
- IC50 [5]: 96 nM
- IC50 [6]: 292 nM
- IC50 [7]: 7.3 nM

Structure (SMILES): C/C(=N\N(C)S(=O)(=O)c1cc([N+](=O)[O-])ccc1N(C)Cc1ccccn1)c1cnn2ccc(C#N)cc12
- Ratio IC50 [9]: 40
- Ratio IC50 [10]: 100
- IC50 [3]: 2300 nM
- IC50 [4]: 9400 nM
- IC50 [5]: 2200 nM
- IC50 [6]: 575 nM
- IC50 [7]: 5.2 nM

Structure (SMILES): CN(CCc1ccncc1)c1ccc([N+](=O)[O-])cc1S(=O)(=O)N(C)/N=C/c1cnn2ccc(C#N)cc12.Cl
- solubility [1]: 45 µg/mL

Structure (SMILES): CN(C)CCN(C)c1ccc(C#N)cc1S(=O)(=O)N(C)/N=C/c1cnn2ccc(C#N)cc12
- IC50 [3]: 47 nM
- IC50 [4]: 2000 nM
- IC50 [5]: 55 nM
- IC50 [6]: 380 nM
- IC50 [7]: 81 nM

Structure (SMILES): C/C(=N\NS(=O)(=O)c1cc([N+](=O)[O-])ccc1N(C)Cc1ccccn1)c1cnn2ccc(C#N)cc12
- IC50 [3]: 3200 nM
- IC50 [4]: 207 nM
- IC50 [5]: 97 nM
- IC50 [6]: 11 nM
- IC50 [7]: 4.8 nM
